In ChEMBL document CHEMBL1201862, “PubChem BioAssay data set” (2004):
Active and inactive are the calls of the source.

Legend:
[1] = A Cell Based Secondary Assay To Explore Cytotoxicity of Compounds that Sensitize Mycobacterium Tuberculosis to Beta-Lactam Antibiotics.; type: functional
[2] = target: T1, High affinity choline transporter 1 (Homo sapiens, UniProt Q9GZV3); experiment: human choline transporter blockers, potency – cell-based, 5-point CRC, membrane potential dye, dose response (AID 504840); type: functional
T1 sequence (Q9GZV3 whole entry): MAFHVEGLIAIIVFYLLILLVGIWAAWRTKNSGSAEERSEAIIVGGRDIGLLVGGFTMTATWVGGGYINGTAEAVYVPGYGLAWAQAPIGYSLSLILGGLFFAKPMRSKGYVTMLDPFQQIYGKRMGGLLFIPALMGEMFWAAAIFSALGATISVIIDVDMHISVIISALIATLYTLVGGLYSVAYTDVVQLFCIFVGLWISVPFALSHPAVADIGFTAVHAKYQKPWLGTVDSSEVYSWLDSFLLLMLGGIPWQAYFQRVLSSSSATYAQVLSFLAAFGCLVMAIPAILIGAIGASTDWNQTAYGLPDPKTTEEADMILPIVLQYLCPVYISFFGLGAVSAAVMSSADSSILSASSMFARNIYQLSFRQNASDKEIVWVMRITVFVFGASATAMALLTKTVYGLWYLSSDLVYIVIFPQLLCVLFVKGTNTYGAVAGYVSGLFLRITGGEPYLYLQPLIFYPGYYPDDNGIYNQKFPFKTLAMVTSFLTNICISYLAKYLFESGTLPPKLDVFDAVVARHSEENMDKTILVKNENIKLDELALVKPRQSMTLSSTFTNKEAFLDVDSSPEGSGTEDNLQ

Exodeoxyribonuclease V = target: T2, Exodeoxyribonuclease V (Escherichia coli (strain K12), UniProt P04993+P07648+P08394); experiment: RecBCD inhibition via phage-restricted bacterial growth – absorbance, V66 E. coli, mutant T4 phage, counter-screen for AddAB inhibitor project, dose response (AID 492957); type: functional, cell-based, Escherichia coli str. K-12 substr. MG1655
T2 sequence (P04993 whole entry): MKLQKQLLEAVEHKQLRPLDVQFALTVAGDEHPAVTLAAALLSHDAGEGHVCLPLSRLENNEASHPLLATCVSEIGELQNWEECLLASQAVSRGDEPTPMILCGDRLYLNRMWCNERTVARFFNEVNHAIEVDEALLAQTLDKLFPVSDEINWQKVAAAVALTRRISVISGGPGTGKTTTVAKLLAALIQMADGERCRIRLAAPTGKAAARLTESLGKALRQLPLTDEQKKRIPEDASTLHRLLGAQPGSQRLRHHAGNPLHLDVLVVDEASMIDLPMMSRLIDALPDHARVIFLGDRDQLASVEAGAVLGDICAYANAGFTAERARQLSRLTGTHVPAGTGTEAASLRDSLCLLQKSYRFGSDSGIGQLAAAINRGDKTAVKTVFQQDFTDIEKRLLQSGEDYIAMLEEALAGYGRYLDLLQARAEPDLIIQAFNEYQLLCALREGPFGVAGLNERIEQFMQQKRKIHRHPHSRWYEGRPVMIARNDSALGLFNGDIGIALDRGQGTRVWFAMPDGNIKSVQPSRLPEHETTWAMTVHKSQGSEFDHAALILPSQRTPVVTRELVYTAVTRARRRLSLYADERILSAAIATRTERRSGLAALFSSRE
T2 sequence (P07648 whole entry): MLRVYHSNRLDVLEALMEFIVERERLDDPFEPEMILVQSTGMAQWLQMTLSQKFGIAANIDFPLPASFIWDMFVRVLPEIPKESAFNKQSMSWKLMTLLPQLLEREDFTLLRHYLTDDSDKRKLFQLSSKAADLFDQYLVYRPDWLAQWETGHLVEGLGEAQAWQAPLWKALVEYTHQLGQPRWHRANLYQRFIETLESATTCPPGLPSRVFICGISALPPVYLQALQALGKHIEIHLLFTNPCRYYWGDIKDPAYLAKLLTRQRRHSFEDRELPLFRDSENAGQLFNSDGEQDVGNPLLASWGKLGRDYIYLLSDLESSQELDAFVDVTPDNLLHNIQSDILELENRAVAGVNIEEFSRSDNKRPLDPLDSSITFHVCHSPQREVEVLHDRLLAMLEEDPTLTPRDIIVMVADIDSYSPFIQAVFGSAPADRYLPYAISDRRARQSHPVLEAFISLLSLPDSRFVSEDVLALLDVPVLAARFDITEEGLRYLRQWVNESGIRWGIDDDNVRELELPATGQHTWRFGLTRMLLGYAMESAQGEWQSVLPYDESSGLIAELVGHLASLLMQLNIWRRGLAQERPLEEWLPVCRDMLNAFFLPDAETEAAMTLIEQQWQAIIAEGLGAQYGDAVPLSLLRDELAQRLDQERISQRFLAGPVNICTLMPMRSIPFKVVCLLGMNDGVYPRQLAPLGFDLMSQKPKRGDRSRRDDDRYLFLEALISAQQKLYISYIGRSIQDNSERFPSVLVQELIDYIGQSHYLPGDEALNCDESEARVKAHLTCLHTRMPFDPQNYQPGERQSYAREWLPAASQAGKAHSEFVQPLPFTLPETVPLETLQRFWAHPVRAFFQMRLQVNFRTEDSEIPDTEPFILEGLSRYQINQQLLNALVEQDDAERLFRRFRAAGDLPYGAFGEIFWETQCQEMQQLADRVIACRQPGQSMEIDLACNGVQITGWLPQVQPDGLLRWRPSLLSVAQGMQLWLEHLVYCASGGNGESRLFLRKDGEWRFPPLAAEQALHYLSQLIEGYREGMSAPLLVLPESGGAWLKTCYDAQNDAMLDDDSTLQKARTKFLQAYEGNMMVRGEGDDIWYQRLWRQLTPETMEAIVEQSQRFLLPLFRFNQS
T2 sequence (P08394 whole entry): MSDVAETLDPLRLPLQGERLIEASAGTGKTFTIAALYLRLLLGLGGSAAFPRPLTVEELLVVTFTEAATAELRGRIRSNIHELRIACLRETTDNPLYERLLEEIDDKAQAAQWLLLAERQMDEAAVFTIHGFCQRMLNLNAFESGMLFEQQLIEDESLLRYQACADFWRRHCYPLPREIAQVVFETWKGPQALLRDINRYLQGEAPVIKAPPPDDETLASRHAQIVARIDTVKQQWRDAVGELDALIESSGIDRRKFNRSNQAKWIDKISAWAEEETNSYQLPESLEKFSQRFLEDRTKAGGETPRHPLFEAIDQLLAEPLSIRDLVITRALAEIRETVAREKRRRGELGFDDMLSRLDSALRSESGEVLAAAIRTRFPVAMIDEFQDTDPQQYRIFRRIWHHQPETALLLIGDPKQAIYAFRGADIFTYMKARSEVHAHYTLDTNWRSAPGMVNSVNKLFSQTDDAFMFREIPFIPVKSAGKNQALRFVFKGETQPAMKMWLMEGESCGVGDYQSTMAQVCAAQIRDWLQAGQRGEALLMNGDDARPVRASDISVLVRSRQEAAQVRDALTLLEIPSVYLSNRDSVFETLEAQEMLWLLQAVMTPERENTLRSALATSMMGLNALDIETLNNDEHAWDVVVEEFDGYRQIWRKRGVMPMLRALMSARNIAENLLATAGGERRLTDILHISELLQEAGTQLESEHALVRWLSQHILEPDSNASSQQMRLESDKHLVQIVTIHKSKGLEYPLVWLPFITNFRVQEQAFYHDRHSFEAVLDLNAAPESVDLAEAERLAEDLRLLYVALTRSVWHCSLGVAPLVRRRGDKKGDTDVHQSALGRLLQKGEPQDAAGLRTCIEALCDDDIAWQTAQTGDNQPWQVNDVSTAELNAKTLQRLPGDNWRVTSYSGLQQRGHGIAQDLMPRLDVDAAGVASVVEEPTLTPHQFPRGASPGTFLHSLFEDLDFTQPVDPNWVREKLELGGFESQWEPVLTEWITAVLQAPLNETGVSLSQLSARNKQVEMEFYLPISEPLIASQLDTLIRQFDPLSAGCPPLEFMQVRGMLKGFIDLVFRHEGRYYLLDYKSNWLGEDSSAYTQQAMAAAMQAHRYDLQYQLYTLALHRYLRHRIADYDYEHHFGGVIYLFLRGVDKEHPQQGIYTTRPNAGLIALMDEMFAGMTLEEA

[3] = Counterscreen for AddAB inhibitors: absorbance-based bacterial cell-based high throughput dose response assay for inhibitors of bacterial viability. [Related pubchem assays (depositor defined):AID435030, AID449728, AID449731, AID488942, AID488955, AID488956]; type: functional
[4] = target: T3, Dual specificity protein phosphatase 3 (Homo sapiens, UniProt P51452); experiment: SAR VHR1 absorbance Assay for In Vitro dose response studies. [Related pubchem assays (depositor defined):AID1654, AID1661, AID1878, AID1992, AID2004]
[5] = target: T4, Dual specificity protein phosphatase 6 (Rattus norvegicus, UniProt Q64346); type: functional;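 further: confirmatory in vitro dose-response testing of MKP-3 inhibition; recombinant His-tagged MKP-3 made in E. coli BL21 with OMFP substrate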
T4 sequence (Q64346 whole entry): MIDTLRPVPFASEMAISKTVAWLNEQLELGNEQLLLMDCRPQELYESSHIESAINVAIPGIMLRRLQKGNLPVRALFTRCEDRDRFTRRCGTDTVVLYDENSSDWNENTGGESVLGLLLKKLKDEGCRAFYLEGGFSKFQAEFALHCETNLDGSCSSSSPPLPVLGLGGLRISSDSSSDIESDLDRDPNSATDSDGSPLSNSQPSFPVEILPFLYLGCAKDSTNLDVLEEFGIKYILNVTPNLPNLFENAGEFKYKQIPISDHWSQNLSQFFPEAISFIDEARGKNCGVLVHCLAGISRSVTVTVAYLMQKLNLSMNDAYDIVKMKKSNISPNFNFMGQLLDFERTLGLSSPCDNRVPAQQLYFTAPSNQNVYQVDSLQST

[6] = target: T3, Dual specificity protein phosphatase 3; experiment: SAR VHR1 Fluorescent Assay for In Vitro dose response studies. [Related pubchem assays (depositor defined):AID1654, AID1661, AID1878, AID1992, AID2004, AID2070, AID2085]; type: functional
[7] = target: T5, Tyrosine-protein phosphatase non-receptor type 7 (Homo sapiens, UniProt P35236); experiment: redox-active compounds inhibiting HePTP phosphatase – biochemical, fluorescence, mechanism study (AID 2068); type: functional
T5 sequence (P35236 whole entry): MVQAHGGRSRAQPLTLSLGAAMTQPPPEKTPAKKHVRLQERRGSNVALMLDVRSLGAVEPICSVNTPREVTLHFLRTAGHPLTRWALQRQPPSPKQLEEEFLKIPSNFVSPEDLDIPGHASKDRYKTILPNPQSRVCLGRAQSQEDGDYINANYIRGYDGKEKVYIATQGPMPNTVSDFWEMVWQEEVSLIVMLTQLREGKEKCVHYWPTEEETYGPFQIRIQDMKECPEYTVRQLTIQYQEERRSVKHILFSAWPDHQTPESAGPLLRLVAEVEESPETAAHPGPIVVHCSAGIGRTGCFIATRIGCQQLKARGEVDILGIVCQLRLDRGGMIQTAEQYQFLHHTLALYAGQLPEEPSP

Cytochrome P450 3A4 = Cytochrome P450 3A4 (Homo sapiens, UniProt P08684);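 further: CYP3A4 tested as one member of a cytochrome P450 panel screen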
[8] = target: Glucose-6-phosphate 1-dehydrogenase (Homo sapiens, UniProt P11413); experiment: inhibition of Homo sapiens G6PD, dose series – biochemical, fluorescence, selectivity assay for P. falciparum G6PD inhibitor project, dose response (AID 504792); type: functional
[9] = target: Kappa-type opioid receptor (Homo sapiens, UniProt P41145); experiment: SAR analysis of small molecule agonists of the kappa opioid receptor via a luminescent beta-arrestin assay - Set 3. [Related pubchem assays (depositor defined):AID1777, AID1785, AID1786, AID1966, AID2133, AID2136, AID2284, AID2500]; type: functional
[10] = target: T3, Dual specificity protein phosphatase 3; experiment: VHR1 phosphatase inhibitors, biochemical (AID 1878)
[11] = target: T3, Dual specificity protein phosphatase 3; experiment: VHR1 phosphatase inhibitors, primary screen, biochemical, absorbance, uHTS (AID 1654)
[12] = target: T4, Dual specificity protein phosphatase 6; experiment: inhibition of rat DUSP6 enzyme activity – biochemical, in vitro, primary screen (AID 425)
Cytochrome P450 2C9 = Cytochrome P450 2C9 (Homo sapiens, UniProt P11712)
Keap1/Nrf2 = Keap1/Nrf2 (Homo sapiens, UniProt Q14145); experiment: disruptors of Keap1 binding to Nrf2 peptide – biochemical, fluorescence polarization, cherry-picked samples, dose response (AID 588683)
Keap1/Nrf2, sequence (Q16236 whole entry): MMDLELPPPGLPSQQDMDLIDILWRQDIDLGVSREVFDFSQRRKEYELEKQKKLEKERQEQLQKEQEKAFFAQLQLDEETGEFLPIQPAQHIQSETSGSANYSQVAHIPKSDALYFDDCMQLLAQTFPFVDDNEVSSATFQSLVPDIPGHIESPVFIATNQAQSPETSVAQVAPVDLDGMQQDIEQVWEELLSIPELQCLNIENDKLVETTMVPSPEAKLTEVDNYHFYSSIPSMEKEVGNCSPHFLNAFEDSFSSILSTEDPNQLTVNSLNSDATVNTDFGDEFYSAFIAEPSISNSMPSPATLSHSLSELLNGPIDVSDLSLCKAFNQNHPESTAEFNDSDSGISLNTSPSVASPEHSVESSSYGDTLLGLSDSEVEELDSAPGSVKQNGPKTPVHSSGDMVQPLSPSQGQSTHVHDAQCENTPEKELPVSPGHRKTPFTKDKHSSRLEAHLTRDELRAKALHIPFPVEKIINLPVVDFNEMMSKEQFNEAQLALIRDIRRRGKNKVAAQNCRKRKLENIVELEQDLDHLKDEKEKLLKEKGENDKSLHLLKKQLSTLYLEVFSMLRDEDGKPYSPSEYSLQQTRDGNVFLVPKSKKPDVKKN
Keap1/Nrf2, sequence (Q14145 whole entry): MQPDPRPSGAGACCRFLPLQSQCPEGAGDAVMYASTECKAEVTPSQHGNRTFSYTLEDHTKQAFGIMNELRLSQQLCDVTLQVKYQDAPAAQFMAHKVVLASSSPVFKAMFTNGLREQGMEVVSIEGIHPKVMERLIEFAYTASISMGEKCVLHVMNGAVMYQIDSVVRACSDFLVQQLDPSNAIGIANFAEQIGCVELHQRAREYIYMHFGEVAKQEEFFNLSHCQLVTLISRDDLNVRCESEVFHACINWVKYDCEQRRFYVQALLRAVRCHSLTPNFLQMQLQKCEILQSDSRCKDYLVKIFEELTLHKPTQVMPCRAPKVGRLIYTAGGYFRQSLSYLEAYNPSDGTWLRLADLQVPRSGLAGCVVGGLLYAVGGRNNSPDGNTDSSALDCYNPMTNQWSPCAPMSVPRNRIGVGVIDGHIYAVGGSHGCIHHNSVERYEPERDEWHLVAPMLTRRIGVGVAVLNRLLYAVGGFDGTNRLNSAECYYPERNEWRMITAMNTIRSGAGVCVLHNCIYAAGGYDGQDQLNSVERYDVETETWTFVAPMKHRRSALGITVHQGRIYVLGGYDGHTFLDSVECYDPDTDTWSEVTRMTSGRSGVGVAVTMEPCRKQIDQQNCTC

T3 sequence (P51452 whole entry): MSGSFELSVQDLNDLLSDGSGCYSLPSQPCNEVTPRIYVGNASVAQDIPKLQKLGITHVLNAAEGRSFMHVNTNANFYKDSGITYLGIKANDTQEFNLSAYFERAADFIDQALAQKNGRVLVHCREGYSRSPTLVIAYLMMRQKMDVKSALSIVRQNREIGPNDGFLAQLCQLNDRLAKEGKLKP
Cytochrome P450 3A4, sequence (P08684 whole entry): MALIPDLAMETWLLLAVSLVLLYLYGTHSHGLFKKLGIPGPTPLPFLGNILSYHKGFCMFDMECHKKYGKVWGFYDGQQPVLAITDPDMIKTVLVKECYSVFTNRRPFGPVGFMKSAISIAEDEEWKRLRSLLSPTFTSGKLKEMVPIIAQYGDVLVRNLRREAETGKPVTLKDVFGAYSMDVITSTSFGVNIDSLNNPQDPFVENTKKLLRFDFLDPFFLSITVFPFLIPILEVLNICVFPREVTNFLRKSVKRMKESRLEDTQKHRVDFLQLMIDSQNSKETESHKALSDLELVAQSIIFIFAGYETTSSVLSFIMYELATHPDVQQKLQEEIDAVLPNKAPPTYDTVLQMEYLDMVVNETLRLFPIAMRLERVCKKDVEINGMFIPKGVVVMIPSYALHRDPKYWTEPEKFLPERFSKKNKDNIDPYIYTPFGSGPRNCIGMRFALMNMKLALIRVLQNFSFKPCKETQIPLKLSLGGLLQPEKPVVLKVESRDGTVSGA
Kappa-type opioid receptor, sequence (P41145 whole entry): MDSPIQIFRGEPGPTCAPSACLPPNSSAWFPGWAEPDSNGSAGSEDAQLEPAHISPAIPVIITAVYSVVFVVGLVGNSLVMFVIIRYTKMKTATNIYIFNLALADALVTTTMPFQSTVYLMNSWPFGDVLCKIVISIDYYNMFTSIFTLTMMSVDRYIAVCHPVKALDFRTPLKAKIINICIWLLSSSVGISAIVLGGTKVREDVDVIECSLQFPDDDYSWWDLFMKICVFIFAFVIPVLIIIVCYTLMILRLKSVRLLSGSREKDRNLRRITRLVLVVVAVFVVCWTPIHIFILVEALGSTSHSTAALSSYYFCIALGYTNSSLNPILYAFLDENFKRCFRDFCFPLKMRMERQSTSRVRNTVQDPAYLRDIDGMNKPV
Cytochrome P450 2C9, sequence (P11712 whole entry): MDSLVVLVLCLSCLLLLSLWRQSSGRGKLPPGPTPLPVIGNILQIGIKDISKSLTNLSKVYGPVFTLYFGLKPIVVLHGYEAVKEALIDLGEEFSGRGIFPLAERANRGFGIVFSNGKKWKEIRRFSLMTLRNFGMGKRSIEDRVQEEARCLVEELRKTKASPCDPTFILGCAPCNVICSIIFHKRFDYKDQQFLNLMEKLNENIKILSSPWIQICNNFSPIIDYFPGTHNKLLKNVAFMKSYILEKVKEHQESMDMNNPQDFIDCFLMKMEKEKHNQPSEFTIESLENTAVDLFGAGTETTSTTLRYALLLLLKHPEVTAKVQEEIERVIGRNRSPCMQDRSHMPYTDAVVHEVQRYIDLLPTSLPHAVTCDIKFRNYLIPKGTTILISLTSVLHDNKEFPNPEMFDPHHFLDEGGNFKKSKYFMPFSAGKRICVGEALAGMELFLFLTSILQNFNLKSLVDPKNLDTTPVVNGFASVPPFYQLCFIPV
Glucose-6-phosphate 1-dehydrogenase, sequence (P11413 whole entry): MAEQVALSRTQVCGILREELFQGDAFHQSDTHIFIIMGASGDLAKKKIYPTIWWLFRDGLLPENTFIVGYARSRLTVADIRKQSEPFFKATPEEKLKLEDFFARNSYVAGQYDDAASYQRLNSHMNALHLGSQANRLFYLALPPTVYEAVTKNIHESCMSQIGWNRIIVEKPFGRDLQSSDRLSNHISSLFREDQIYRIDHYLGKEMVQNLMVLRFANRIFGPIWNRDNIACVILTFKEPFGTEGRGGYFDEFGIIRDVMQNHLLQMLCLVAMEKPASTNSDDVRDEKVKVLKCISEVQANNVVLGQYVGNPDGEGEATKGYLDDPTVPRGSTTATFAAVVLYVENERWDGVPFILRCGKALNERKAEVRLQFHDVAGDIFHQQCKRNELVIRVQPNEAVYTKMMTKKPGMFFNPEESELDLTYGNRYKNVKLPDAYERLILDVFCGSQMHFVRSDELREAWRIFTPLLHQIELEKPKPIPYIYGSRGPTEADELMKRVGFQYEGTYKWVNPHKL

## CN1CCN(S(=O)(=O)c2ccc(NC(=O)c3ccc(Br)s3)cc2)CC1
[1]
  CC50: > 40 µM (active)
[2]
  IC50: 16.6 µM (active)

## Cc1cc2c(c(=O)o1)C(c1ccc([N+](=O)[O-])o1)C(C#N)=C(N)O2 (centres undefined)
Exodeoxyribonuclease V
  IC50: > 119 µM (inactive)
[3]
  IC50: 102 µM (inactive)

## CC(C)NC(=S)c1cn(CCOc2ccccc2)c2ccccc12
[4]
  IC50: > 100 µM (inactive)
[5]
  IC50: > 100 µM (inactive)
[6]
  IC50: > 100 µM (inactive)
[7]
  IC50: > 100 µM (inactive)

## Cn1cccc1C(=O)N1CCC2(CC1)CN(c1ccccn1)C2
Cytochrome P450 3A4
  AC50: inconclusive

## COc1c(O)c(O)c2oc(-c3ccccc3)cc(=O)c2c1OC
[8]
  IC50: > 80 µM (inactive)
Exodeoxyribonuclease V
  IC50: > 119 µM (inactive)
[3]
  IC50: > 119 µM (inactive)

## COc1cccc(Cn2c(=O)c(-c3ccc(Cl)cc3)nc3cnc(N4CCN(C)CC4)nc32)c1
Cytochrome P450 3A4
  AC50: inconclusive

## COc1ccc(C(=O)NC2CCCCC2)cc1OC1CCN(C(C)C)CC1
[2]
  IC50: 17.4 µM (active)

## Clc1ccc(CSc2nnc(-c3ccccn3)n2Cc2ccccc2)cc1Cl
[9]
  EC50: 1.24 µM (active)

## Oc1c(Br)cc(/C=N/n2c(S)nnc2-c2ccccc2)c(Br)c1O
[10]
  IC50: 2.39 µM (active)
[11]
  IC50: < 1.23 µM (inactive)
[12]
  IC50: 90.3 µM (active)

## CC(=O)N1CCC2(CC1)CCN(C(c1ccccc1)c1ccccc1)CC2
Cytochrome P450 3A4
  AC50: inconclusive
Cytochrome P450 2C9
  AC50: 39.8 µM (inconclusive)

## Cc1cc(C)c(C)c(S(=O)(=O)Nc2cccc(S(=O)(=O)Nc3ccccc3C(=O)O)c2)c1C
Keap1/Nrf2
  AC50: > 52 µM (inactive)

## Clc1ccc(CSc2nnc(-c3ccccn3)n2Cc2cccnc2)cc1Cl
[9]
  EC50: 0.756 µM (active)

## Cc1cccc(C)c1OCc1cc(C(=O)N(C)Cc2nc3ccccc3[nH]2)no1
Exodeoxyribonuclease V
  IC50: > 119 µM (inactive)
[3]
  IC50: > 119 µM (inactive)
